Converted amounts (≈) assume the structure as drawn. “Also recorded” adds a separate entry of the source. Read-outs that look alike come from different tables or passages of the source.
Legend:
[1] = tested on: Escherichia coli strain TG1 (sensitive strain); test: DNA fragmentation / DNA damage level by the process of the invention (microgel, lysis, SYBR Gold); settings: for DNA damage (in words): 300 micrograms/ml
[2] = tested on: Escherichia coli strain TG1 (sensitive strain); settings: for Vital Stain Empty Capsules, Sensitive Strain: 40 minutes
[3] = tested on: Escherichia coli strain sensitive (TG1); test: Growth inhibition MIC (commercial test), sensitive strain; assay type: cell-based; settings: read-out: minimum inhibitory concentration (MIC) of growth
[4] = tested on: Escherichia coli strain resistant to ciprofloxacin; test: Growth inhibition MIC (commercial test), resistant strain; assay type: cell-based; settings: maximum concentration of the commercial test
[5] = tested on: Escherichia coli strain resistant to ciprofloxacin; settings: 40 minutes, LB medium
[6] = 300 μg/ml, 40 min, exponential phase in LB medium

OO [H2O2, hydrogen peroxide]
DNA Fragmentation (percentage of bacteria with fragmented DNA) ([1]; 10 mM, 10 min): 100.00%
DNA fragmentation (in words) ([1]; 10 mM, 10 minutes): massive Escherichia coli DNA fragmentation
Vital Stain Empty Capsules ([2]; 10 mM, 10 min): 0.30%
Vital Stain Permeable ([2]; 10 mM, 10 min): 5.00%

CC1(C)S[C@@H]2[C@H](NC(=O)[C@H](N)c3ccccc3)C(=O)N2[C@H]1C(=O)O [Ampicillin, ampicillin]
DNA Fragmentation (percentage of bacteria with fragmented DNA) [1, 6]: 4.20%
DNA damage (in words) ([1]; 20 minutes): differences were not observed with respect to the control; also recorded: DNA fragments are not observed
DNA damage (in words) ([1]; 24 hours): massive presence of punctiform degraded DNA fragments; also recorded: the bottom is covered with DNA fragments
Vital Stain Empty Capsules [2, 6]: 5.00%
Vital Stain Empty Capsules ([2]; 300 micrograms/ml, 20 minutes): 0.67%
Vital Stain Empty Capsules ([2]; 300 micrograms/ml, 24 hours): 75.97%

gentamicin
DNA Fragmentation (percentage of bacteria with fragmented DNA) [1, 6]: 3.70%
Vital Stain Empty Capsules [2, 6]: 0.50%
Vital Stain Permeable [2, 6]: 10.00%

O=C(O)c1cn(C2CC2)c2cc(N3CCNCC3)c(F)cc2c1=O [Ciprofloxacin, ciprofloxacin]
MIC [3]: 0.012 µg/mL (≈ 0.0362 µM)
MIC [4]: > 32 µg/mL
minimum incubation time at which evident DNA damage was detected ([1]; 1 μg/ml): 5 min
DNA Fragmentation (percentage of bacteria with fragmented DNA) ([1]; 25 μg/ml, 40 min): 100.00%
DNA damage level ([1]; 0.006 micrograms/ml, 40 minutes): intermediate between level 1 and 2
minimum time of incubation to detect a minimal effect at DNA level (incl. […] processing) ([1]; 1 microgram/ml): 6.5 min
DNA damage level ([1]; 10 micrograms/ml for 40 minutes, immediately after the treatment (0 min after wash)): 3-4
size of the bacterial capsules versus the other assayed times ([1]; 10 micrograms/ml for 40 minutes, then 60 and 90 minutes in ciprofloxacin-free medium, image analysis): increases about double
time in antibiotic-free medium at which a statistically significant decrease of the fragment diffusion halo begins to be detected ([1]; 10 micrograms/ml for 40 minutes, then washed, image analysis, p<0.05): 15 min
Vital Stain Empty Capsules, Sensitive Strain ([2]; 0.003 μg/ml, exponential growth in LB medium): 0.70%
Vital Stain Empty Capsules, Sensitive Strain ([2]; 0.006 μg/ml, exponential growth in LB medium): 0.76%
Vital Stain Empty Capsules, Sensitive Strain ([2]; 0.012 μg/ml, exponential growth in LB medium): 1.06%
Vital Stain Empty Capsules, Sensitive Strain ([2]; 0.100 μg/ml, exponential growth in LB medium): 1.40%
Vital Stain Empty Capsules, Sensitive Strain ([2]; 0.50 μg/ml, LB medium): 0.05%
Vital Stain Empty Capsules, Sensitive Strain ([2]; 1.00 μg/ml, LB medium): 0.00%
Vital Stain Empty Capsules, Sensitive Strain ([2]; 2.50 μg/ml, LB medium): 0.15%
Vital Stain Empty Capsules, Sensitive Strain ([2]; 10.00 μg/ml, LB medium): 0.48%
Vital Stain Empty Capsules ([2]; 25 μg/ml, 40 min): 0.30%
Vital Stain Empty Capsules, Resistant Strain ([5]; 0.50 μg/ml): 0.00%
Vital Stain Empty Capsules, Resistant Strain ([5]; 1.00 μg/ml): 0.10%
Vital Stain Empty Capsules, Resistant Strain ([5]; 2.50 μg/ml): 0.10%
Vital Stain Empty Capsules, Resistant Strain ([5]; 10.00 μg/ml): 0.15%

— patent US9212391B2, “Method for determining DNA fragmentation in microorganisms” (Universidad Autonoma de Madrid, priority 2006, dated 2015)
